The values below come from patent publication US20250333424A1, “ANTIVIRAL COMPOUNDS” (Gilead Sciences, Inc., priority 2024, published 2025).

Where only a bound is given, the exact number is not on record here.

In the assay the test system is monocytic THP1 cells infected with HIV VSV-G pseudotyped GFP-NEF reporter virus. Briefly: cells. The assay is classed as cell-based. As to conditions: Human immunodeficiency virus 1, THP-1, 24 h.

As for `Cc1cc(/C=C/C#N)cc(C)c1Oc1nc(NC23CC(C#N)(C2)C3)nc2nn(C)c(I)c12` [Compound 87, (E)-3-((4-(4-(2-cyanovinyl)-2,6-dimethylphenoxy)-3-iodo-2-methyl-2H-pyrazolo[3,4-d]pyrimidin-6-yl)amino)bicyclo[1.1.1]pentane-1-carbonitrile], a half-maximal response (EC50) required 25.1 nM.
`C=Cc1c2c(Oc3c(C)cc(/C=C/C#N)cc3C)nc(NC34CC(C#N)(C3)C4)nc2nn1C` [Compound 88, (E)-3-((4-(4-(2-cyanovinyl)-2,6-dimethylphenoxy)-2-methyl-3-vinyl-2H-pyrazolo[3,4-d]pyrimidin-6-yl)amino)bicyclo[1.1.1]pentane-1-carbonitrile]: the EC50 (as a rule, the concentration at which the effect is half-maximal) stood at 23.4 nM.
Turning to `Cc1cc(/C=C/C#N)cc(C)c1Oc1nc(NC23CC(C#N)(C2)C3)nc2[nH]nc(Br)c12` [Compound 90, (E)-3-((3-bromo-4-(4-(2-cyanovinyl)-2,6-dimethylphenoxy)-1H-pyrazolo[3,4-d]pyrimidin-6-yl)amino)bicyclo[1.1.1]pentane-1-carbonitrile], the midpoint of the response, the EC50, lay at 25.4 nM. The EC50 values of the last two molecules are within 1.5-fold of each other.
In turn, `Cc1cc(/C=C/C#N)cc(C)c1Oc1nc(NC23CC(C#N)(C2)C3)nc2[nH]nc(C(F)F)c12` [Compound 91, (E)-3-((4-(4-(2-cyanovinyl)-2,6-dimethylphenoxy)-3-(difluoromethyl)-1H-pyrazolo[3,4-d]pyrimidin-6-yl)amino)bicyclo[1.1.1]pentane-1-carbonitrile] yielded an EC50 of 42.3 nM.
Turning to `Cc1cc(/C=C/C#N)cc(C)c1Oc1nc(NC23CC(C#N)(C2)C3)nc2nn(C)c(C(F)F)c12` [Compound 92, (E)-3-((4-(4-(2-cyanovinyl)-2,6-dimethylphenoxy)-3-(difluoromethyl)-2-methyl-2H-pyrazolo[3,4-d]pyrimidin-6-yl)amino)bicyclo[1.1.1]pentane-1-carbonitrile], the EC50 was determined as 26.3 nM.
`Cc1cc(/C=C/C#N)cc(C)c1Oc1nc(NC23CC(C#N)(C2)C3)nc2c1c(C(F)F)nn2C` [Compound 93, (E)-3-((4-(4-(2-cyanovinyl)-2,6-dimethylphenoxy)-3-(difluoromethyl)-1-methyl-1H-pyrazolo[3,4-d]pyrimidin-6-yl)amino)bicyclo[1.1.1]pentane-1-carbonitrile] came in with an EC50 of 37.7 nM.
As to `Cc1cc(/C=C/C#N)cc(C)c1Oc1nc(NC23CC(C#N)(C2)C3)nc2[nH]nc(Cl)c12` [Compound 94, (E)-3-((3-chloro-4-(4-(2-cyanovinyl)-2,6-dimethylphenoxy)-1H-pyrazolo[3,4-d]pyrimidin-6-yl)amino)bicyclo[1.1.1]pentane-1-carbonitrile], the EC50 was 72.5 nM. Compared with the last molecule, the EC50 is about 1.9-fold higher.
On to `CNC(=O)Cn1nc2nc(NC34CC(C#N)(C3)C4)nc(Oc3c(C)cc(/C=C/C#N)cc3C)c2c1C` [Compound 98, (E)-2-(6-((3-cyanobicyclo[1.1.1]pentan-1-yl)amino)-4-(4-(2-cyanovinyl)-2,6-dimethylphenoxy)-3-methyl-2H-214-pyrazolo[3,4-d]pyrimidin-2-yl)-N-methylacetamide], for which the response was half-maximal at 94.3 nM (EC50).
Turning to `CNC(=O)Cn1nc(C)c2c(Oc3c(C)cc(/C=C/C#N)cc3C)nc(NC34CC(C#N)(C3)C4)nc21` [Compound 99, (E)-2-(6-((3-cyanobicyclo[1.1.1]pentan-1-yl)amino)-4-(4-(2-cyanovinyl)-2,6-dimethylphenoxy)-3-methyl-1H-pyrazolo[3,4-d]pyrimidin-1-yl)-N-methylacetamide], the EC50 was determined as 37.1 nM.
`Cc1cc(/C=C/C#N)cc(C)c1Oc1nc(NC23CC(C#N)(C2)C3)nc2c1c(C)nn2CC#N` [Compound 100, (E)-3-((1-(cyanomethyl)-4-(4-(2-cyanovinyl)-2,6-dimethylphenoxy)-3-methyl-11H-pyrazolo[3,4-d]pyrimidin-6-yl)amino)bicyclo[1.1.1]pentane-1-carbonitrile] returned an EC50 of 36.1 nM.
Consider `CNC(=O)CCn1nc(C)c2c(Oc3c(C)cc(/C=C/C#N)cc3C)nc(NC34CC(C#N)(C3)C4)nc21` [Compound 101, (E)-3-(6-((3-cyanobicyclo[1.1.1]pentan-1-yl)amino)-4-(4-(2-cyanovinyl)-2,6-dimethylphenoxy)-3-methyl-1H-pyrazolo[3,4-d]pyrimidin-1-yl)-N-methylpropanamide], for which the midpoint of the response, the EC50, lay at 59.6 nM.
As for `Cc1cc(/C=C/C#N)cc(C)c1Oc1nc(NC23CC(C#N)(C2)C3)nc2nn(CCC(F)F)c(C)c12` [Compound 102, (E)-3-((4-(4-(2-cyanovinyl)-2,6-dimethylphenoxy)-2-(3,3-difluoropropyl)-3-methyl-2H-pyrazolo[3,4-d]pyrimidin-6-yl)amino)bicyclo[1.1.1]pentane-1-carbonitrile], the figure is 22.4 nM; as for `Cc1cc(/C=C/C#N)cc(C)c1Oc1nc(NC23CC(C#N)(C2)C3)nc2c1c(C)nn2CCC(F)F` [Compound 103, (E)-3-((4-(4-(2-cyanovinyl)-2,6-dimethylphenoxy)-1-(3,3-difluoropropyl)-3-methyl-1H-pyrazolo[3,4-d]pyrimidin-6-yl)amino)bicyclo[1.1.1]pentane-1-carbonitrile], 221 nM.
The molecule `Cc1cc(/C=C/C#N)cc(C)c1Oc1nc(NC23CC(C#N)(C2)C3)nc2[nH]nc(C3CC3)c12` [Compound 104, (E)-3-((4-(4-(2-cyanovinyl)-2,6-dimethylphenoxy)-3-cyclopropyl-1H-pyrazolo[3,4-d]pyrimidin-6-yl)amino)bicyclo[1.1.1]pentane-1-carbonitrile] gave an EC50 of 141 nM.
Regarding `C=Cc1n[nH]c2nc(NC34CC(C#N)(C3)C4)nc(Oc3c(C)cc(/C=C/C#N)cc3C)c12` [Compound 105, (E)-3-((4-(4-(2-cyanovinyl)-2,6-dimethylphenoxy)-3-vinyl-1H-pyrazolo[3,4-d]pyrimidin-6-yl)amino)bicyclo[1.1.1]pentane-1-carbonitrile], a half-maximal response (EC50) required 182 nM.
Consider `Cc1cc(/C=C/C#N)cc(C)c1Oc1nc(NC23CC(C#N)(C2)C3)nc2[nH]nc(-c3ccn(C)n3)c12` [Compound 107, (E)-3-((4-(4-(2-cyanovinyl)-2,6-dimethylphenoxy)-3-(1-methyl-1H-pyrazol-3-yl)-1H-pyrazolo[3,4-d]pyrimidin-6-yl)amino)bicyclo[1.1.1]pentane-1-carbonitrile], for which a half-maximal response (EC50) required 443 nM.
Turning to `Cc1cc(/C=C/C#N)cc(C)c1Oc1nc(NC23CC(C#N)(C2)C3)nc2cn(C(C)C)nc12` [Compound 108], the EC50 was determined as 611 nM.
With `COc1n[nH]c2nc(NC34CC(C#N)(C3)C4)nc(Oc3c(C)cc(/C=C/C#N)cc3C)c12` [Compound 109, (E)-3-((4-(4-(2-cyanovinyl)-2,6-dimethylphenoxy)-3-methoxy-1H-pyrazolo[3,4-d]pyrimidin-6-yl)amino)bicyclo[1.1.1]pentane-1-carbonitrile], it took 200 nM to reach a half-maximal effect (EC50).
Take `Cc1cc(/C=C/C#N)cc(C)c1Oc1nc(NC23CC(C#N)(C2)C3)nc2[nH]nc(O)c12` [Compound 110, (E)-3-((4-(4-(2-cyanovinyl)-2,6-dimethylphenoxy)-3-hydroxy-1H-pyrazolo[3,4-d]pyrimidin-6-yl)amino)bicyclo[1.1.1]pentane-1-carbonitrile]: the EC50 was greater than 1000 nM.
In the case of `Cc1cc(/C=C/C#N)cc(C)c1Oc1nc(NC23CC(C#N)(C2)C3)nc2noc(C)c12` [Compound 111, (E)-3-((4-(4-(2-cyanovinyl)-2,6-dimethylphenoxy)-3-methylisoxazolo[3,4-d]pyrimidin-6-yl)amino)bicyclo[1.1.1]pentane-1-carbonitrile], the EC50 was determined as 30.6 nM.
